Values quoted from earlier work in patent US10758506B2, “Amino acid compositions for the treatment of porcine epidemic diarrhea” (priority 2014, dated 2020).

Details: Health Phys., 106(6):734-44, 2014

| SMILES | active anion secretion and/or paracellular permeability |
| --- | --- |
| N=C(N)NCCC[C@H](N)C(=O)O [Arginine] | activate active anion secretion and/or increase paracellular permeability |
| C[C@H](N)C(=O)O [alanine] | activate active anion secretion and/or increase paracellular permeability |
| NC(=O)C[C@H](N)C(=O)O [asparagine] | activate active anion secretion and/or increase paracellular permeability |
| N[C@@H](CS)C(=O)O [cysteine] | activate active anion secretion and/or increase paracellular permeability |
| N[C@@H](CCC(=O)O)C(=O)O [glutamic acid] | activate active anion secretion and/or increase paracellular permeability |
| NC(=O)CC[C@H](N)C(=O)O [glutamine] | activate active anion secretion and/or increase paracellular permeability |
| N[C@@H](Cc1c[nH]cn1)C(=O)O [histidine] | activate active anion secretion and/or increase paracellular permeability |
| CC(C)C[C@H](N)C(=O)O [leucine] | activate active anion secretion and/or increase paracellular permeability |
| CSCC[C@H](N)C(=O)O [methionine] | activate active anion secretion and/or increase paracellular permeability |
| N[C@@H](Cc1ccccc1)C(=O)O [phenylalanine] | activate active anion secretion and/or increase paracellular permeability |
